In PubChem BioAssay AID330 (DTP/NCI, 2004):
Where “and” joins values, the source holds several entries; their conditions need not be identical. Identical values can stand only once. Inconclusive results and toxic doses are left out.

Tested on: P388 leukemia ip, CD2F1 mice, survival T/C
Experiment: NCI In Vivo Anticancer Drug Screen. Data for tumor model P388 Leukemia (intraperitoneal) in CD2F1 (CDF1) mice
Settings: endpoint: median survival time, higher = longer survival
Outline: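 Mice carrying the transplanted tumor received test compound or vehicle. Survival was recorded in each group, and the value is the treated-group measurement divided by that of the vehicle-treated control group.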

[1] = dose: 50.0 mg/kg/injection, schedule: Q01DX005 (ip), vehicle: saline with Tween-80
[2] = dose: 100.0 mg/kg/injection, schedule: Q01DX005 (ip), vehicle: saline with Tween-80
[3] = dose: 200.0 mg/kg/injection, schedule: Q01DX005 (ip), vehicle: saline with Tween-80
[4] = dose: 25.0 mg/kg/injection, schedule: Q04DX003 (ip), vehicle: saline with Tween-80
[5] = dose: 50.0 mg/kg/injection, schedule: Q04DX003 (ip), vehicle: saline with Tween-80
[6] = dose: 50.0 mg/kg/injection, schedule: Q01DX005 (ip), vehicle: saline
[7] = dose: 100.0 mg/kg/injection, schedule: Q01DX005 (ip), vehicle: saline
[8] = dose: 200.0 mg/kg/injection, schedule: Q01DX005 (ip), vehicle: saline
[9] = dose: 50.0 mg/kg/injection, schedule: Q01DX009 (ip), vehicle: Klucel (hydroxypropylcellulose) (HPC)
[10] = dose: 100.0 mg/kg/injection, schedule: Q01DX009 (ip), vehicle: Klucel (hydroxypropylcellulose) (HPC)
[11] = dose: 60.0 mg/kg/injection, schedule: Q01DX005 (ip), vehicle: Klucel (hydroxypropylcellulose) (HPC)
[12] = dose: 120.0 mg/kg/injection, schedule: Q01DX005 (ip), vehicle: Klucel (hydroxypropylcellulose) (HPC)
[13] = dose: 50.0 mg/kg/injection, schedule: Q01DX005 (ip), vehicle: Klucel (hydroxypropylcellulose) (HPC)
[14] = dose: 100.0 mg/kg/injection, schedule: Q01DX005 (ip), vehicle: Klucel (hydroxypropylcellulose) (HPC)
[15] = dose: 200.0 mg/kg/injection, schedule: Q01DX005 (ip), vehicle: Klucel (hydroxypropylcellulose) (HPC)
[16] = dose: 50.0 mg/kg/injection, schedule: Q01DX009 (ip), vehicle: saline with Tween-80
[17] = dose: 100.0 mg/kg/injection, schedule: Q01DX009 (ip), vehicle: saline with Tween-80
[18] = dose: 50.0 mg/kg/injection, schedule: Q01DX009 (ip), vehicle: saline
[19] = dose: 100.0 mg/kg/injection, schedule: Q01DX009 (ip), vehicle: saline
[20] = dose: 200.0 mg/kg/injection, schedule: Q01DX009 (ip), vehicle: saline

CC(C)CCCC(C)C1CCC2C3CCC4CC5(C)C(CC4(C)C3CCC12C)C(=O)C5(Cl)Cl (centres undefined)
T/C [1]: 96 % of control | T/C [2]: 100 % of control | T/C [3]: 99 % of control

NS(=O)(=O)c1ccc(C(=O)O)cc1
T/C [4]: 101 % of control | T/C [5]: 94 % of control | T/C (dose: 100.0 mg/kg/injection, schedule: Q04DX003 (ip), vehicle: saline with Tween-80): 100 % of control | T/C (dose: 200.0 mg/kg/injection, schedule: Q04DX003 (ip), vehicle: saline with Tween-80): 103 % of control

O=C1CN(C2CCCCC2)CC(=O)N2CCCCN12
T/C [6]: 108 % of control | T/C [7]: 105 % of control | T/C [8]: 103 % of control

O=N[O-].[Co].[N-]=C=S.[NH2-].[NH2-].[NH2-].[NH2-]
T/C (dose: 12.5 mg/kg/injection, schedule: Q04DX003 (ip), vehicle: saline with Tween-80): 110 % of control | T/C [4]: 120 % of control | T/C [5]: 120 % of control

CC(=O)N/N=C1/C=C2C/C(=N\NC(C)=O)C=C2C1
T/C [1]: 99 % of control | T/C [2]: 95 % of control | T/C [3]: 90 % of control

Cc1nn(C(=O)c2ccncc2)c(C)c1N=Nc1ccccc1[N+](=O)[O-]
T/C [9]: 102 % of control | T/C [10]: 96 % of control | T/C (dose: 200.0 mg/kg/injection, schedule: Q01DX009 (ip), vehicle: Klucel (hydroxypropylcellulose) (HPC)): 98 % of control

O=[N+]([O-])c1ccc2c(c1)Oc1cccnc1[Se]2
T/C [11]: 105 % of control | T/C [12]: 95 % of control | T/C (dose: 240.0 mg/kg/injection, schedule: Q01DX005 (ip), vehicle: Klucel (hydroxypropylcellulose) (HPC)): 90 % of control

CC(C)(NC(=O)c1cc(Cl)c2ccccc2c1O)C(=O)O
T/C (dose: 50.0 mg/kg/injection, schedule: Q01DX009 (ip), vehicle: saline + alcohol): 97 % of control | T/C (dose: 100.0 mg/kg/injection, schedule: Q01DX009 (ip), vehicle: saline + alcohol): 94 % of control | T/C (dose: 200.0 mg/kg/injection, schedule: Q01DX009 (ip), vehicle: saline + alcohol): 103 % of control

Cc1[nH]n(-c2cc(S(=O)(=O)O)ccc2Cl)c(=O)c1N=Nc1ccc(C(=O)Nc2ccc(S(=O)(=O)O)cc2)cc1
T/C [13]: 99 % of control | T/C [14]: 92 % of control | T/C [15]: 99 % of control

Cc1ccc(NC(=O)Nc2nccs2)cc1
T/C (dose: 12.5 mg/kg/injection, schedule: Q01DX009 (ip), vehicle: distilled water + Tween-80): 101 % of control | T/C (dose: 25.0 mg/kg/injection, schedule: Q01DX009 (ip), vehicle: distilled water + Tween-80): 99 % of control | T/C (dose: 50.0 mg/kg/injection, schedule: Q01DX009 (ip), vehicle: distilled water + Tween-80): 90 % of control | T/C (dose: 100.0 mg/kg/injection, schedule: Q01DX009 (ip), vehicle: distilled water + Tween-80): 99 % of control | T/C (dose: 200.0 mg/kg/injection, schedule: Q01DX009 (ip), vehicle: distilled water + Tween-80): 105 % of control

CC(C)(C)SC(=O)C1CCCCC1
T/C [16]: 103 % of control | T/C [17]: 104 % of control

CC12CC3(C)CC(C)(C1)CC(C(NC(C)(C)C)C(=O)O)(C2)C3 (centres undefined)
T/C (dose: 25.0 mg/kg/injection, schedule: Q01DX009 (ip), vehicle: saline with Tween-80): 100 % of control | T/C [16]: 100 % of control and 105 % of control and 122 % of control | T/C [17]: 99 % of control and 110 % of control and 96 % of control | T/C (dose: 200.0 mg/kg/injection, schedule: Q01DX009 (ip), vehicle: saline with Tween-80): 99 % of control

C=C1SC(=Nc2cccc(OC)c2)N(c2nc(Cl)nc(Cl)n2)C12CCCCC2
T/C [18]: 100 % of control | T/C [19]: 101 % of control | T/C [20]: 100 % of control

COc1ccc(-n2c(=O)c(N=Nc3ccccc3OC)c(O)n(-c3ccccc3Cl)c2=S)cc1
T/C (dose: 50.0 mg/kg/injection, schedule: Q01DX001 (ip), vehicle: Klucel (hydroxypropylcellulose) (HPC)): 100 % of control | T/C (dose: 100.0 mg/kg/injection, schedule: Q01DX001 (ip), vehicle: Klucel (hydroxypropylcellulose) (HPC)): 99 % of control | T/C (dose: 200.0 mg/kg/injection, schedule: Q01DX001 (ip), vehicle: Klucel (hydroxypropylcellulose) (HPC)): 93 % of control

COc1ccc2oc3cccc(NCCN(C)C)c3c(=O)c2c1
T/C (dose: 25.0 mg/kg/injection, schedule: Q01DX005 (ip), vehicle: Klucel (hydroxypropylcellulose) (HPC)): 105 % of control | T/C [13]: 100 % of control | T/C [14]: 107 % of control | T/C [15]: 107 % of control

O=C(O)c1cc(O)c(O)c(O)c1
T/C (dose: 14.0 mg/kg/injection, schedule: Q01DX009 (ip), vehicle: saline): 105 % of control | T/C (dose: 22.0 mg/kg/injection, schedule: Q01DX009 (ip), vehicle: saline): 100 % of control | T/C (dose: 35.0 mg/kg/injection, schedule: Q01DX009 (ip), vehicle: saline): 95 % of control | T/C [18]: 103 % of control and 97 % of control | T/C [19]: 100 % of control and 101 % of control | T/C (dose: 100.0 mg/kg/injection, schedule: Q01DX009 (ip), vehicle: water): 95 % of control | T/C (dose: 100.0 mg/kg/injection, schedule: Q04DX003 (ip), vehicle: Klucel (hydroxypropylcellulose) (HPC)): 100 % of control | T/C [20]: 118 % of control and 96 % of control | T/C (dose: 200.0 mg/kg/injection, schedule: Q01DX009 (ip), vehicle: water): 95 % of control | T/C (dose: 200.0 mg/kg/injection, schedule: Q04DX003 (ip), vehicle: Klucel (hydroxypropylcellulose) (HPC)): 100 % of control | T/C (dose: 400.0 mg/kg/injection, schedule: Q01DX009 (ip), vehicle: saline): 106 % of control and 111 % of control | T/C (dose: 400.0 mg/kg/injection, schedule: Q01DX009 (ip), vehicle: water): 100 % of control | T/C (dose: 400.0 mg/kg/injection, schedule: Q04DX003 (ip), vehicle: Klucel (hydroxypropylcellulose) (HPC)): 95 % of control | T/C (dose: 600.0 mg/kg/injection, schedule: Q01DX009 (ip), vehicle: saline): 110 % of control and 111 % of control

CCCCCCCCCCCCCCCCCCSc1c(OC)c(OC(C)=O)c(OC)c(OC)c1OC(C)=O
T/C (dose: 4.0 mg/kg/injection, schedule: Q01DX009 (ip), vehicle: Klucel (hydroxypropylcellulose) (HPC)): 87 % of control | T/C (dose: 8.0 mg/kg/injection, schedule: Q01DX009 (ip), vehicle: Klucel (hydroxypropylcellulose) (HPC)): 98 % of control | T/C (dose: 16.0 mg/kg/injection, schedule: Q01DX009 (ip), vehicle: Klucel (hydroxypropylcellulose) (HPC)): 96 % of control | T/C (dose: 32.0 mg/kg/injection, schedule: Q01DX009 (ip), vehicle: Klucel (hydroxypropylcellulose) (HPC)): 98 % of control

C1CN1Sc1nc(SN2CC2)nc(SN2CC2)n1
T/C [11]: 100 % of control | T/C [12]: 97 % of control

CN1NC(C2NN(C)C(=O)N(C)N2)NN(C)C1=O
T/C [6]: 102 % of control | T/C [7]: 102 % of control | T/C [8]: 107 % of control

CCN1C2=NCCN2C(=O)c2ccccc21
T/C [9]: 97 % of control | T/C [10]: 97 % of control

O=C1N(Br)C(=O)C(c2ccc(Cl)cc2)(c2ccc(Cl)cc2)N1Br
T/C (dose: 11.0 mg/kg/injection, schedule: Q01DX009 (ip), vehicle: saline with Tween-80): 122 % of control | T/C (dose: 150.0 mg/kg/injection, schedule: Q01DX009 (ip), vehicle: saline with Tween-80): 154 % of control

OCC(O)COCCCCCCCCCCCC1C=CCC1 (centres undefined)
T/C (dose: 100.0 mg/kg/injection, schedule: Q04DX003 (ip), vehicle: saline): 99 % of control | T/C (dose: 200.0 mg/kg/injection, schedule: Q04DX003 (ip), vehicle: saline): 99 % of control | T/C (dose: 400.0 mg/kg/injection, schedule: Q04DX003 (ip), vehicle: saline): 99 % of control

CCCCCCCCCCCCCCCCCCCC
T/C (dose: 6.25 mg/kg/injection, schedule: Q01DX009 (ip), vehicle: other): 112 % of control | T/C (dose: 12.5 mg/kg/injection, schedule: Q01DX009 (ip), vehicle: other): 90 % of control | T/C (dose: 25.0 mg/kg/injection, schedule: Q01DX009 (ip), vehicle: other): 111 % of control | T/C (dose: 50.0 mg/kg/injection, schedule: Q04DX003 (ip), vehicle: other): 91 % of control | T/C (dose: 100.0 mg/kg/injection, schedule: Q04DX003 (ip), vehicle: other): 91 % of control
